DC50 and Activity data for two compounds are collected here from ChEMBL document CHEMBL6134905, “Double Swords in One: Novel Selective PI3K/110β PROTAC Degraders for the Treatment of Multidrug-Resistant Cancer by Activating ERS and Inhibiting P-gp” (J Med Chem, 2025).

The target of assay [1] is T1, von Hippel-Lindau disease tumor suppressor/Phosphatidylinositol 4,5-bisphosphate 3-kinase catalytic subunit alpha isoform (Homo sapiens, UniProt P42336+P40337). Put plainly: PROTAC activity at PI3K-p110alpha/VHL in human MCF7/ADM cells assessed as induction of PI3K-p110alpha degradation incubated for 24 hrs by Western blot analysis. Format: cell-based.
Target sequence in this assay (P42336 whole entry, canonical isoform): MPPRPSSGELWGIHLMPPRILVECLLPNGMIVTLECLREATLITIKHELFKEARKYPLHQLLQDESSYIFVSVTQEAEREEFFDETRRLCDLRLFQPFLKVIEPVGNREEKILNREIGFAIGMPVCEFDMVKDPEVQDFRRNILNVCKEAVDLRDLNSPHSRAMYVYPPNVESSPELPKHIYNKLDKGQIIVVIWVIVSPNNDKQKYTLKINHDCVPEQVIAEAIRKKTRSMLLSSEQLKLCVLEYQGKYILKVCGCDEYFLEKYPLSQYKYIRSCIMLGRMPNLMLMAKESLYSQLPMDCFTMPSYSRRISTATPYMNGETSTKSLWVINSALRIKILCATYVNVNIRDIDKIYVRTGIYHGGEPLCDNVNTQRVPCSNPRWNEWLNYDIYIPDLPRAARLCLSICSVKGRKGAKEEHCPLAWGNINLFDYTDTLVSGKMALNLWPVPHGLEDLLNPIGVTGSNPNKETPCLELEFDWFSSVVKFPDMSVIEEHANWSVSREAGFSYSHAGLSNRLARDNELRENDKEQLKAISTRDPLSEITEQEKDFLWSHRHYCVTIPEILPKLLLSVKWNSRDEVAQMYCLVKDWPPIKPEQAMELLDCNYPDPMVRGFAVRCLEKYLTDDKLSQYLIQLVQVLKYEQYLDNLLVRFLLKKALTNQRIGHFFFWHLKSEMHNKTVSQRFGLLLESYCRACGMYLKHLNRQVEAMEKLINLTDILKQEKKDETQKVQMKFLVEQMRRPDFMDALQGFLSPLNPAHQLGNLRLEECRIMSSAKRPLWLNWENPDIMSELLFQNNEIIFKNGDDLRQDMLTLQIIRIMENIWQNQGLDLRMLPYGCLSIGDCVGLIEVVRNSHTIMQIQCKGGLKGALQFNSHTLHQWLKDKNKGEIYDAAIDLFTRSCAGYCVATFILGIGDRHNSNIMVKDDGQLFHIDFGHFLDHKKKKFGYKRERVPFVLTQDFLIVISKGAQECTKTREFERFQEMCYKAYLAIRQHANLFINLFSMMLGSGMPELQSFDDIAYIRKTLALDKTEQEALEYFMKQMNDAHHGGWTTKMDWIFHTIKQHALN
Target sequence in this assay (P40337 whole entry, canonical isoform): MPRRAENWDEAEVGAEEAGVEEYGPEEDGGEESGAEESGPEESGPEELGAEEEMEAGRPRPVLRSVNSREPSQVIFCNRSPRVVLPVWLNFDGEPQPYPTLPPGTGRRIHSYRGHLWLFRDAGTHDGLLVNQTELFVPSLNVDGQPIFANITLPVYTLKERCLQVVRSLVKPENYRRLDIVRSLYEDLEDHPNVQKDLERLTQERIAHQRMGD
Assay [2] deals with A549/CDDP. In words: Induction of apoptosis in human A549/DDP cells at 6.25 uM incubated for 24 hrs by Annexin V-FITC/PI staining based flow cytometry analysis (reference value: 4.27%). It counts as functional.
The test system of assay [3] is A549/CDDP. Put plainly: Induction of apoptosis in human A549/DDP cells at 25 uM incubated for 24 hrs in presence of TUDCA by Annexin V-FITC/PI staining based flow cytometry analysis (reference value: 4.27%). It counts as functional.
Assay [4] has as its target T2, von Hippel-Lindau disease tumor suppressor/Phosphatidylinositol 4,5-bisphosphate 3-kinase catalytic subunit beta isoform (Homo sapiens, UniProt P42338+P40337). In words: PROTAC activity at PI3K-p110beta/VHL in human A549/DDP cells assessed as reduction in PI3K-p110beta mRNA level at 25 uM measured for 24 hrs by qRT-PCR analysis. It counts as cell-based.
For assay [5], the system named is A549/CDDP. In words: Induction of apoptosis in human A549/DDP cells at 12.5 uM incubated for 24 hrs by Annexin V-FITC/PI staining based flow cytometry analysis (reference value: 4.27%). It counts as functional.
Assay [6] in a line: Induction of apoptosis in human MCF7/ADM cells at 25 uM incubated for 24 hrs in presence of TUDCA by Annexin V-FITC/PI staining based flow cytometry analysis (reference value: 5.20%). Format: functional.
The subject of another assay is MCF7/ADM. Put plainly: Antitumor activity against human MCF7/ADM cells xenografted in BALB/c mouse assessed as reduction in tumor volume at 50 mg/kg, ip measured every 2 days in presence of Adriamycin. Format: functional, organism-based. The note with it: time 2.0 day.
The target in assay [7] is T2, von Hippel-Lindau disease tumor suppressor/Phosphatidylinositol 4,5-bisphosphate 3-kinase catalytic subunit beta isoform. In words: PROTAC activity at PI3K-p110beta/VHL in human MCF7/ADM cells assessed as reduction in PI3K-p110beta level incubated for 24 hrs by Western blot analysis. Format: cell-based. As to conditions: dose 0.04-50 µM.
For assay [8], the target named is T1, von Hippel-Lindau disease tumor suppressor/Phosphatidylinositol 4,5-bisphosphate 3-kinase catalytic subunit alpha isoform. Put plainly: PROTAC activity at PI3K-p110alpha/VHL in human A549/DDP cells assessed as reduction in PI3K-p110alpha level incubated for 24 hrs by Western blot analysis. It counts as cell-based. As to conditions: dose 0.04-50 µM.
Target sequence in this assay (P40337 whole entry, looked up, canonical isoform): as the sequence (P40337 whole entry, canonical isoform) above
Target sequence in this assay (P42336 whole entry, looked up, canonical isoform): as the sequence (P42336 whole entry, canonical isoform) above
Assay [9] can be described thus: Induction of apoptosis in human MCF7/ADM cells at 25 uM incubated for 24 hrs by Annexin V-FITC/PI staining based flow cytometry analysis (reference value: 5.20%). It counts as functional.
The target in assay [10] is T2, von Hippel-Lindau disease tumor suppressor/Phosphatidylinositol 4,5-bisphosphate 3-kinase catalytic subunit beta isoform. Put plainly: PROTAC activity at PI3K-p110beta/VHL in human MCF7/ADM cells assessed as reduction in PI3K-p110beta mRNA level at 25 uM measured for 24 hrs by qRT-PCR analysis. Format: cell-based.

Active and inactive are the calls of the source. The rule behind the calls is not given here. A value given as a limit tells only on which side of the number the result lay.

T2 sequence (P40337 whole entry, looked up, canonical isoform): as the sequence (P40337 whole entry, canonical isoform) above
T2 sequence (P42338 whole entry, looked up, canonical isoform): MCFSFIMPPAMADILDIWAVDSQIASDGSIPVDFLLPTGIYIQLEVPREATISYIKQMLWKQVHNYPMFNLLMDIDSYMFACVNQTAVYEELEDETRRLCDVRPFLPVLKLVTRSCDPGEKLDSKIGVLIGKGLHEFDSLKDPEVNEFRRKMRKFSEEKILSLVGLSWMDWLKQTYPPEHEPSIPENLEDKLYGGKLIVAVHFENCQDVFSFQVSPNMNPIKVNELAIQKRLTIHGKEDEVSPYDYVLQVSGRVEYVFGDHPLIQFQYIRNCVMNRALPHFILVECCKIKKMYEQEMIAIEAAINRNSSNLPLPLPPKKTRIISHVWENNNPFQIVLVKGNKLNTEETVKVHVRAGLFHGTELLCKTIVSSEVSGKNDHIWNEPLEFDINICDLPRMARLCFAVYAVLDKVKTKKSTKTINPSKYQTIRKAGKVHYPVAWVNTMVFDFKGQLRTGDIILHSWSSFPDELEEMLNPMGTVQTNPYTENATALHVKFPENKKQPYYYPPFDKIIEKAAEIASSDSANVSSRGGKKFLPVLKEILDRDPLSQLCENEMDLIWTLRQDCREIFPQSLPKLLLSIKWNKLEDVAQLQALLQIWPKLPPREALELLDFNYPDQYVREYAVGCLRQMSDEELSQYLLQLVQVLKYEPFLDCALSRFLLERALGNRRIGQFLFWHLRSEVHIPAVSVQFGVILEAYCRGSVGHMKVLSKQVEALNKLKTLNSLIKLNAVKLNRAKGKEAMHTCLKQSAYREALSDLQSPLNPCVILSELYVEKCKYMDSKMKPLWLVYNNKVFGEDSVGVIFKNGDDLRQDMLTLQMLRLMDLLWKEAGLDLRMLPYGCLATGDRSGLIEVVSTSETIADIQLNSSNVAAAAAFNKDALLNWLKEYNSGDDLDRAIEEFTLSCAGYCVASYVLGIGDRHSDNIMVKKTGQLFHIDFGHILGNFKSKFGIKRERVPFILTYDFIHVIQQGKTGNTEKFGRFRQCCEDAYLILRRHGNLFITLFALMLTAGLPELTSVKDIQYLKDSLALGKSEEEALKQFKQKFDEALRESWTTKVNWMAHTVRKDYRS

As to `Cc1cc(C(C)Nc2ccccc2C(=O)NCCCCCCC(=O)N[C@H](C(=O)N2C[C@H](O)C[C@H]2C(=O)NCc2ccc(-c3scnc3C)cc2)C(C)(C)C)c2nc(N3CCOCC3)cc(=O)n2c1` (stereo partly specified), the DC50 in assay [1] is more than 50 µM. The Activity in the assay on A549/CDDP [2] is listed as 8.73%; in the assay with A549/CDDP [3], 22.84%; in the assay on A549/CDDP [5] it was 15.76%. In assay [4], the outcome was inactive.

With `Cc1cc(C(C)Nc2ccccc2C(=O)NCCOCCOCCC(=O)N[C@H](C(=O)N2C[C@H](O)C[C@H]2C(=O)NCc2ccc(-c3scnc3C)cc2)C(C)(C)C)c2nc(N3CCOCC3)cc(=O)n2c1` (stereo partly specified), the Activity in [6] is 21.59%; in assay [7], “Dose-dependent-effect”; in assay [8] it was “Dose-dependent-effect”; in assay [9], 26.66%. The result (in the assay with MCF7/ADM; in [10]) was Active.
